The numbers were not newly measured in patent US9296759B2, “Amino-oxazine and amino-dihydrothiazine compounds as beta-secretase modulators and methods of use” (AMGEN INC., priority 2011, dated 2016), which cites them from elsewhere.

The conditions of data set [1]: people of the phase I trial; cited from earlier work.
In data set [2] the test system is pigment epithelium of the rat's eye. The note with it: higher compound dose given for three months; cited from earlier work.

In the case of `C[C@@]1(c2cc(-c3cncnc3)c(F)cc2F)CCSC(N)=N1` [LY 2811376], in data set [1], the eye assessments entry is recorded as “did not show any abnormalities”. In addition, the retinal toxicity finding result in data set [2] is “ravaged the pigment epithelium of the rat's eye”.
